Converted amounts (≈) assume the structure as drawn. Where two headings read alike, the source gives them in different places.
How the values were obtained:
[1] = tested on: Mycobacterium tuberculosis H37Ra; assay: Antimycobacterial microdilution broth MIC (resazurin), Mtb H37Ra; format: cell-based; conditions: for MIC: Mycobacterium tuberculosis, H37RA, read-out: MIC Mtb H37Ra
[2] = tested on: Mycolicibacterium aurum DSM 43999; assay: Antimycobacterial microdilution broth MIC (resazurin), M. aurum; format: cell-based; conditions: DSM43999, read-out: MIC M. aurum
HepG2 cell line = assay: Cytotoxicity CellTiter 96, HepG2; format: cell-based, human; conditions: 24 h incubation, ^c compound precipitated in the testing medium, ^d over the limit of tested concentrations
A498 cell line = assay: Cytotoxicity CellTiter 96, A498; format: cell-based; conditions: Homo sapiens, 24 h incubation
Protocol: (§1) The cytotoxicity of final compounds was determined in human hepatocellular carcinoma cell line HepG2. Additional testing of selected compounds was performed on human epithelial kidney cancer cell line A498, human prostate cancer cell line PC‐3, human glioblastoma cell line U‐87 MG, and normal human proximal tubule cell line HK‐2.
(§2) Cytotoxicity determination […]
(§3) For subculturing, the cells were harvested after trypsin/EDTA (Sigma–Aldrich) treatment at 37 °C. To evaluate cytotoxicity, the cells treated with the tested substances were used as experimental groups whereas untreated HepG2 cells served as controls. The cells were seeded in density 10,000 cells per well in a 96 well plate. The next day the cells were treated with each of the tested substances dissolved in DMSO. The tested substances were […]
(§4) in triplicates according to their solubility. Simultaneously, the controls representing 100% cell viability, 0% cell viability (the cells treated with 10% DMSO), no cell control and vehiculum controls were also […]
(§5) the reagent from the kit CellTiter 96 AQueous One Solution Cell Proliferation Assay (CellTiter 96; PROMEGA, Fitchburg, USA) was added. After 2h incubation at 37 °C, absorbance of samples was recorded at 490 nm (TECAN, Infinita M200, Austria). A standard toxicological parameter IC50 was calculated by nonlinear regression from a semilogarithmic plot of incubation concentration versus percentage of absorbance relative to untre ated controls using GraphPad Prism 8 software.
Human epithelial kidney carcinoma A498 cell line, obtained from American Type Culture Collection (ATCC, Manassas, VA, USA, catalogue No.: HTB -44), was cultured in RPMI medium, Human normal kidney proximal tubule HK-2 cell line obtained from ATCC (ATCC, Manassas, VA, USA, catalogue No.:
(§6) Kaighn's Modification of Ham's F-12 Medium and human glioblastoma astrocytoma U-87 MG cell line, […]
Glucose medium. All cultures were supplemented with 10% fetal bovine serum, 1% non-essential amino acids (A498, HK-2 and U-87 MG), 1% sodium pyruvate (A498, HK-2 and U-87 MG) and 2 mM L-glutamine. […]

U‐87 MG cell line = assay: Cytotoxicity CellTiter 96, U-87 MG; format: cell-based; conditions: Homo sapiens, 24 h incubation
Protocol: as §1, §2, §3, §4
as §5, with “software. […]” for “software.”
as §6
Glucose medium. All cultures were supplemented with 10% fetal bovine serum, 1% non-essential amino acids (A498, HK-2 and U-87 MG), 1% sodium pyruvate (A498, HK-2 and U-87 MG) and 2 mM L-glutamine. All cell culture consumables were purchased from Merck (Darmstadt, Germany). The cells

[3] = tested on: Staphylococcus aureus CCM 4223, ATCC 29213; assay: Antibacterial microdilution broth MIC, SA; format: cell-based; conditions: Staphylococcus aureus
[4] = tested on: Staphylococcus aureus subsp. aureus CCM 4750, ATCC 43300 (MRSA); assay: Antibacterial microdilution broth MIC, MRSA; format: cell-based; conditions: Staphylococcus aureus
[5] = tested on: Enterococcus faecalis CCM 4224, ATCC 29212; assay: Antibacterial microdilution broth MIC, EF; format: cell-based
[6] = tested on: Acinetobacter baumannii DSM 30007, ATCC 19606; assay: Antibacterial microdilution broth MIC, ACI; format: cell-based
[7] = tested on: Candida krusei CCM 8271, ATCC 6258; assay: Antifungal microdilution broth MIC, CK; conditions: Pichia kudriavzevii
[8] = tested on: Klebsiella pneumoniae CCM 4415, ATCC 10031; assay: Antibacterial microdilution broth MIC, KP
[9] = buffer, 3 h, 1 µM, pH 7.4
Protocol: HPLC-MS stability determination in PBS (pH 7.4)
Briefly, compounds were dissolved in DMSO to produce stock sample solutions.
NaOH. The concentration of tested compounds was set at 1 µM.
After that, 150 µL of supernatant was
transferred to the vial and analyzed by LC-MS.
3000 RS coupled with a Q Exactive Plus orbitrap mass spectrometer to obtain the areas (Thermo Fisher
Scientific, Bremen, Germany). Reverse-phase C18 column Kinetex EVO (Phenomenex, Torrance, CA,
USA) was used as a stationary phase, and purified water with 0.1% formic acid (mobile phase A) and
LC-MS grade acetonitrile with 0.1% formic acid (mobile phase B) were used as the mobile phases.
Gradient elution was used to determine purities and mass spectra. The method started with 5% B for
0.3 min, then the gradient switched to 100% B in the third min, remained at 100% B for 0.7 min and
then went back to 5% B with equilibration for 3.5 min. The total run time of the method was 7.5 min.
The column temperature was kept constant at 27 °C, the flow of the mobile phase was 0.5 mL/min,
and the injection volume was 1 µL.

For O=C(Cc1cccc(C(F)(F)F)c1)Nc1ccc(Cl)cn1 [Compound 26], the MIC ([1]; Calculated from MIC (μg/mL)) was greater than 1590 µM, the MIC [1] was greater than 500 mg/L and the MIC [2] was greater than 500 mg/L. The IC50 (HepG2 cell line; Homo sapiens, HepG2, 24 h) was 52.9 µM, the IC50 (A498 cell line) was 128 µM and the IC50 (U‐87 MG cell line) was 158 µM. The MIC ([3]; 24 h, read-out: MIC SA 24h) was greater than 500 µM, the MIC ([3]; 48 h, read-out: MIC SA 48h) was greater than 500 µM and the MIC ([4]; 24 h, read-out: MIC MRSA 24h) was greater than 500 µM. The MIC ([4]; 48 h, read-out: MIC MRSA 48h) was greater than 500 µM, the MIC ([5]; 24 h, read-out: MIC EF 24h) was greater than 500 µM and the MIC ([5]; 48 h, read-out: MIC EF 48h) was greater than 500 µM. It also gave an MIC ([6]; 24 h, read-out: MIC ACI 24h) greater than 500 µM, an MIC ([6]; 48 h, read-out: MIC ACI 48h) greater than 500 µM and an MIC ([7]; 24 h, read-out: MIC CK 24h) greater than 500 µM. For the same compound, the MIC ([7]; 48 h, read-out: MIC CK 48h) was greater than 500 µM, the “MIC KP 24h” value [8] was greater than 500 µM and the “MIC KP 48h” value [8] was greater than 500 µM.

O=C(Cc1ccccc1C(F)(F)F)Nc1cccc(Cl)n1 [Compound 24] gave an MIC ([1]; Calculated from MIC (μg/mL)) greater than 1590 µM, an MIC [1] greater than 500 mg/L and an MIC [2] greater than 500 mg/L. For the same compound, the IC50 (HepG2 cell line; Homo sapiens, HepG2, 24 h) was 64.6 µM, the IC50 (A498 cell line) was 278 µM and the IC50 (U‐87 MG cell line) was greater than 250 µM. The MIC ([3]; 24 h, read-out: MIC SA 24h) was greater than 500 µM, the MIC ([3]; 48 h, read-out: MIC SA 48h) was greater than 500 µM and the MIC ([4]; 24 h, read-out: MIC MRSA 24h) was greater than 500 µM. It also gave an MIC ([4]; 48 h, read-out: MIC MRSA 48h) greater than 500 µM, an MIC ([5]; 24 h, read-out: MIC EF 24h) greater than 500 µM and an MIC ([5]; 48 h, read-out: MIC EF 48h) greater than 500 µM. The MIC ([6]; 24 h, read-out: MIC ACI 24h) was greater than 500 µM, the MIC ([6]; 48 h, read-out: MIC ACI 48h) was greater than 500 µM and the “concentration remaining (hydrolytic stability)” value [9] was no less than 90%. For the same compound, the MIC ([7]; 24 h, read-out: MIC CK 24h) was greater than 500 µM, the MIC ([7]; 48 h, read-out: MIC CK 48h) was greater than 500 µM and the “MIC KP 24h” value [8] was greater than 500 µM. The “MIC KP 48h” value [8] was greater than 500 µM.

Compound O=C(Cc1cccc(Cl)c1)Nc1ccc(Cl)cn1 [Compound 17, 2-(3-chlorophenyl)-N-(5-chloropyridin-2-yl)acetamide] has an MIC ([1]; Calculated from MIC (μg/mL)) of 445 µM, an MIC [1] of 125 mg/L and an MIC [2] of 250 mg/L (≈ 889 µM). For the same compound, the IC50 (HepG2 cell line; Homo sapiens, HepG2, 24 h) was 112 µM, the IC50 (A498 cell line) was 135 µM and the IC50 (U‐87 MG cell line) was 161 µM. For the same compound, the MIC ([3]; 24 h, read-out: MIC SA 24h) was greater than 500 µM, the MIC ([3]; 48 h, read-out: MIC SA 48h) was greater than 500 µM and the MIC ([4]; 24 h, read-out: MIC MRSA 24h) was greater than 500 µM. For the same compound, the MIC ([4]; 48 h, read-out: MIC MRSA 48h) was greater than 500 µM, the MIC ([5]; 24 h, read-out: MIC EF 24h) was greater than 500 µM and the MIC ([5]; 48 h, read-out: MIC EF 48h) was greater than 500 µM. The MIC ([6]; 24 h, read-out: MIC ACI 24h) was greater than 500 µM, the MIC ([6]; 48 h, read-out: MIC ACI 48h) was greater than 500 µM and the MIC ([7]; 24 h, read-out: MIC CK 24h) was greater than 500 µM. For the same compound, the MIC ([7]; 48 h, read-out: MIC CK 48h) was greater than 500 µM, the “MIC KP 24h” value [8] was greater than 500 µM and the “MIC KP 48h” value [8] was greater than 500 µM.

In the case of COc1ccc(CC(=O)Nc2cccc(Cl)n2)cc1 [Compound 12, 2-(4-methoxyphenyl)-N-(6-chloropyridin-2-yl)acetamide], the MIC ([1]; Calculated from MIC (μg/mL)) is reported as 56.3 µM, the MIC [1] is reported as 15.6 mg/L and the “SI (selectivity index)” value ([1]; SI = HepG2 IC50 (μM)/MIC MtbH37Ra (μM), calculated for compounds with MIC ≤ 31.25 μg/mL) is reported as 9.2. It also gave an MIC [2] of 62.5 mg/L (≈ 226 µM), an IC50 (HepG2 cell line) of 516 µM and an IC50 (HepG2 cell line; Homo sapiens, HepG2, 24 h) greater than 500 µM. The MIC ([3]; 24 h, read-out: MIC SA 24h) was 500 µM (≈ 138 µg/mL), the MIC ([3]; 48 h, read-out: MIC SA 48h) was 500 µM (≈ 138 µg/mL) and the MIC ([4]; 24 h, read-out: MIC MRSA 24h) was 500 µM (≈ 138 µg/mL). For the same compound, the MIC ([4]; 48 h, read-out: MIC MRSA 48h) was greater than 500 µM, the MIC ([5]; 24 h, read-out: MIC EF 24h) was 500 µM (≈ 138 µg/mL) and the MIC ([5]; 48 h, read-out: MIC EF 48h) was 500 µM (≈ 138 µg/mL). For the same compound, the MIC ([6]; 24 h, read-out: MIC ACI 24h) was greater than 500 µM, the MIC ([6]; 48 h, read-out: MIC ACI 48h) was greater than 500 µM and the “concentration remaining (hydrolytic stability)” value [9] was no less than 90%. The MIC ([7]; 24 h, read-out: MIC CK 24h) was greater than 500 µM, the MIC ([7]; 48 h, read-out: MIC CK 48h) was greater than 500 µM and the “MIC KP 24h” value [8] was greater than 500 µM. For the same compound, the “MIC KP 48h” value [8] was greater than 500 µM.
